Test results published in US9828350B2, “5,6-dihydro-2H-[1,4]oxazin-3-yl-amine derivatives useful as inhibitors of beta-secretase (BACE)” (Janssen Pharmaceutica NV, priority 2010, dated 2017).

Key:
[1] = target: recombinant BACE1 protein (Homo sapiens, UniProt P56817); assay: Biochemical FRET based assay; details: recombinant BACE1 1 μg/ml, 120 minutes at room temperature, pH 5.0; for IC50: read-out: Biochemical FRET based assay pIC50 (converted)
From the text: Biochemical FRET Based Assay
This assay is a Fluorescence Resonance Energy Transfer Assay (FRET) based assay. The substrate for this assay is an APP derived 13 amino acids peptide that contains the ‘Swedish’ Lys-Met/Asn-Leu mutation of the amyloid precursor protein (APP) beta-secretase cleavage site. This substrate also contains two fluorophores: (7-methoxycoumarin-4-yl) acetic acid (Mca) is a fluorescent donor with excitation wavelength at 320 nm and emission at 405 nm and 2,4-Dinitrophenyl (Dnp) is a proprietary quencher acceptor. […] Upon cleavage by BACE1, the fluorophore Mca is separated from the quenching group Dnp, restoring the full fluorescence yield of the donor. The increase in fluorescence is linearly related to the rate of proteolysis.
Briefly in a 384-well format recombinant BACE1 protein in a final concentration of 1 μg/ml is incubated for 120 minutes at room temperature with […] substrate in incubation buffer (40 mM Citrate buffer pH 5.0, 0.04% PEG, 4% DMSO) in the absence or presence of compound. Next the amount of proteolysis is directly measured by fluorescence measurement at T=0 and T=120 (excitation at 320 nm and emission at 405 nm). Results are expressed in RFU (Relative Fluorescence Units), as difference between T120 and TO.

Abeta 1-42 = assay: Cellular αLisa assay in SKNBE2 cells, Abeta 1-42; format: cell-based, human; details: incubated for 18 hours; for IC50: Homo sapiens, SKNBE2, 18 h, read-out: Cellular αLisa assay in SKNBE2 cells Abeta 42 pIC50 (converted)
Protocol: (§1) Cellular αLisa Assay in SKNBE2 Cells
(§2) In two αLisa assays the levels of Abeta total and Abeta 1-42 produced and secreted into the medium of human neuroblastoma SKNBE2 cells are quantified. The assay is based on the human neuroblastoma SKNBE2 expressing the wild type Amyloid Precursor Protein (hAPP695). The compounds are diluted and added to these cells, incubated for 18 hours and then measurements of Abeta 1-42 and Abeta total are taken. Abeta total and Abeta 1-42 are measured by sandwich αLisa. αLisa is a sandwich assay using biotinylated antibody AbN/25 attached to streptavidin coated beads and antibody Ab4G8 or cAb42/26 conjugated acceptor beads for the detection of Abeta total and Abeta 1-42 respectively. In the presence of Abeta total or Abeta 1-42, the beads come into close proximity. The excitation of the donor beads provokes the release of singlet oxygen molecules that trigger a cascade of energy transfer in the acceptor beads, resulting in light emission. Light emission is measured after 1 hour incubation (excitation at […] and emission at 615 nm).

Abeta total = assay: Cellular αLisa assay in SKNBE2 cells, Abeta total; format: cell-based, human; details: incubated for 18 hours; for IC50: Homo sapiens, SKNBE2, 18 h, read-out: Cellular αLisa assay in SKNBE2 cells Abetatotal pIC50 (converted)
Protocol: as §1, §2

Chain of recombinant BACE1 protein (P56817 46-501): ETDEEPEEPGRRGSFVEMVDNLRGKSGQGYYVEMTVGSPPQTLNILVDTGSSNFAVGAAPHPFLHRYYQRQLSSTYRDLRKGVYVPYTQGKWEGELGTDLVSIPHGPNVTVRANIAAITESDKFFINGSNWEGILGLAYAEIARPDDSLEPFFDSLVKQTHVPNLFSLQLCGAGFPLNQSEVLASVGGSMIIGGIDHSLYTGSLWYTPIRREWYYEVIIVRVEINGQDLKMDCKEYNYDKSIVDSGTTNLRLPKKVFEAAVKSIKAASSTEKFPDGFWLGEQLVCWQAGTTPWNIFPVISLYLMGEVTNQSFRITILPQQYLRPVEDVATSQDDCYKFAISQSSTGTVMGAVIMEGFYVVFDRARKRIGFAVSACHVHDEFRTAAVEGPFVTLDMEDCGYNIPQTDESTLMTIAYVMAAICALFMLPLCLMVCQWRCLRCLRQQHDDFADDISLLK

| Structure (SMILES) | Biochemical FRET based assay pIC50 [1] | Cellular αLisa assay in SKNBE2 cells Abeta 42 pIC50 (Abeta 1-42) | Cellular αLisa assay in SKNBE2 cells Abetatotal pIC50 (Abeta total) | IC50 [1] [µM] | IC50 (Abeta 1-42) [µM] | IC50 (Abeta total) [µM] |
| --- | --- | --- | --- | --- | --- | --- |
| COc1cncc(-c2ccc(F)c(C3(C)COCC(N)=N3)c2)c1 (single isomer, unassigned) [Compound 56] | 5.69 | 7.02 | 7.1 |  |  |  |
| COc1cnc(C(=O)Nc2cccc(C3(C)COC(F)(C(F)(F)F)C(N)=N3)c2)cn1 (single isomer, unassigned) [Compound 69] |  | 5.13 | <5 | 5.13 |  |  |
| CC1(c2cccc(NC(=O)c3ccc(Cl)cn3)c2)COC(F)(C(F)(F)F)C(N)=N1 (single isomer, unassigned) [Compound 70] | 5.77 | 5.17 | 5.31 |  |  |  |
| CC1(c2cccc(NC(=O)c3ccc(Cl)cn3)c2)COC(F)(C(F)(F)F)C(N)=N1 (single isomer, unassigned) [Compound 71] | 6.25 | <5 | <5 |  |  |  |
| CC1(c2cc(-c3cncnc3)c(F)cc2F)N=C(N)COC1F (single isomer, unassigned) [Compound 81] |  |  |  | 8.91 | 1.23 | 1.2 |
| COc1cncc(-c2cccc(C3(C)N=C(N)COC3F)c2)c1 (single isomer, unassigned) [Compound 88] |  | 5.66 | 5.65 | > 30.2 |  |  |
| COc1cncc(-c2cccc(C3(C)N=C(N)COC3F)c2)c1 (single isomer, unassigned) [Compound 89] |  | 6.51 | 6.67 | 5.5 |  |  |
| CC1(c2cccc(NC(=O)c3ccc(Cl)cn3)c2)N=C(N)COC1F (single isomer, unassigned) [Compound 90] | 6.37 | 7.76 | 7.76 |  |  |  |
| COc1cncc(-c2cccc(C3(C)N=C(N)COC3F)c2)c1 (single isomer, unassigned) [Compound 92] |  | 5.47 | 5.51 | 15.1 |  |  |
| CC1(c2cccc(-c3cncnc3)c2)N=C(N)COC1F (single isomer, unassigned) [Compound 95] |  | 6.48 | 6.5 | 1.41 |  |  |
| CC1(c2cccc(-c3cncnc3)c2)N=C(N)COC1F (single isomer, unassigned) [Compound 97] |  | 6.86 | 6.87 | 6.17 |  |  |
| COc1cncc(-c2cccc(C3(C)N=C(N)COC3C(F)(F)F)c2)c1 (single isomer, unassigned) [Compound 101] |  | 7.71 | 7.7 | 0.178 |  |  |
| COc1cncc(-c2cccc(C3(C)N=C(N)COC3C(F)(F)F)c2)c1 (single isomer, unassigned) [Compound 102] |  | <5 | <5 | > 30.2 |  |  |
| COc1cncc(-c2cccc(C3(C)N=C(N)COC3C(F)(F)F)c2)c1 (single isomer, unassigned) [Compound 103] |  | 6.38 | 6.35 | 2.09 |  |  |
| COc1cncc(-c2cccc(C3(C)N=C(N)COC3C(F)(F)F)c2)c1 (single isomer, unassigned) [Compound 104] |  | 5.8 | 5.82 | 9.33 |  |  |
| CC1(c2cc(-c3cncnc3)ccc2F)N=C(N)COC1(F)C(F)(F)F (single isomer, unassigned) [Compound 111] |  |  |  | 1.48 | 0.437 | 0.49 |
| CC1(c2cccc(-c3cncnc3)c2)N=C(N)COC1(F)C(F)(F)F (single isomer, unassigned) [Compound 116] |  | 5.18 | 5.06 | > 30.2 |  |  |
| COc1cncc(-c2cccc(C3(C)N=C(N)COC3(F)C(F)(F)F)c2)c1 (single isomer, unassigned) [Compound 119] |  | 5.62 | 5.67 | 11.2 |  |  |
| CC1(c2cccc(NC(=O)c3ccc(Cl)cn3)c2)N=C(N)COC1F (single isomer, unassigned) [Compound 122] | <4.52 | 5.19 | 5.04 |  |  |  |
| CC1(c2cc(-c3cncnc3)ccc2F)N=C(N)COC1F (single isomer, unassigned) [Compound 127] |  | <5 | <5 | > 30.2 |  |  |
| COc1cnc(C(=O)Nc2cccc(C3(C)N=C(N)COC3F)c2)cn1 (single isomer, unassigned) [Compound 131] |  | 7.54 | 7.52 | 0.0355 |  |  |
| COc1cnc(C(=O)Nc2cccc(C3(C)N=C(N)COC3F)c2)cn1 (single isomer, unassigned) [Compound 132] |  | 6.35 | 6.38 | 1.1 |  |  |
| CC1(c2cc(NC(=O)c3ncc(Cl)cc3F)ccc2F)N=C(N)COC1F (single isomer, unassigned) [Compound 133] |  | 8.18 | 8.21 | 0.0257 |  |  |
| CC1(c2cccc(-c3cncnc3)c2)N=C(N)COC1(F)C(F)(F)F (single isomer, unassigned) [Compound 139] |  | <5 | <5 | > 30.2 |  |  |
| CC1(c2cccc(-c3cncnc3)c2)N=C(N)COC1(F)C(F)(F)F (single isomer, unassigned) [Compound 140] |  | <5 | <5 | > 30.2 |  |  |
| COc1cncc(-c2cccc(C3(C)N=C(N)COC3(F)C(F)(F)F)c2)c1 (single isomer, unassigned) [Compound 141] |  | <5 | <5 | > 30.2 |  |  |
| COc1cncc(-c2cccc(C3(C)N=C(N)COC3(F)C(F)(F)F)c2)c1 (single isomer, unassigned) [Compound 142] |  | <5 | <5 | > 30.2 |  |  |
| CC1(c2cccc(NC(=O)c3ccc(Cl)cn3)c2)COC(F)(C(F)(F)F)C(N)=N1 (single isomer, unassigned) [Compound 154] | <4.52 | <5 | <5 |  |  |  |
